Values quoted from earlier work in patent US20230285276A1, “Implantable Medical Device for the Delivery of Aromatase Inhibitor” (Celanese EVA Performance Polymers LLC, priority 2022, published 2023).

Tests used:
[1] = test system: circulating estrogen; conditions: postmenopausal women
[2] = test system: adrenal biosynthesis of corticosteroids or aldosterone; conditions: in vivo

For `C=C1C[C@@H]2[C@H](CC[C@]3(C)C(=O)CC[C@@H]23)[C@@]2(C)C=CC(=O)C=C12` [Exemestane, 6-methylenandrosta-1,4-diene-3,17-dione], which circulating estrogen concentration [1] is on record?
Its circulating estrogen concentration is “lowers”.

And the “effect on adrenal biosynthesis of corticosteroids or aldosterone” value [2]?
Its value is “no detectable effect”.

And the “solubility in N, N-dimethylformamide” value (N, N-dimethylformamide, descriptive term)?
Its value is “freely soluble”.

What about the solubility in methanol (methanol, descriptive term) of the same compound?
The solubility in methanol was “soluble”.

And the “solubility in water (descriptive term)” value (water)?
The value was “practically insoluble”.
